# “And” between values parts separate entries of the source, which are not always exact repeats. Equal values may be shown once. Numbers after ± are expanded uncertainties.
# Conditions: 313.15 K; Liquid; Closed cell (Static) method
row,SMILES,vapor or sublimation pressure
1,c1ccccc1 [benzene],24.39 ± 0.097 kPa and 24.37 ± 0.097 kPa
2,CC(C)OC(C)C [diisopropyl ether],37.1 ± 0.15 kPa and 37.11 ± 0.15 kPa and 37.12 ± 0.15 kPa
3,CCCO [propan-1-ol],7.003 ± 0.038 kPa and 7 ± 0.038 kPa
